Source: paper PMC4237480, “Cytochrome P450 induction properties of food and herbal-derived compounds using a novel multiplex RT-qPCR in vitro assay, a drug–food interaction prediction tool” (Food Science & Nutrition, 2014)
One block for each compound: values may come before it.

Key:
[1] = system: CYP3A4; parameters: method as in Pekthong et al. ([2008]); conditions: human microsomes; ref Pekthong et al. ([2008]); cited from earlier work
[2] = system: CYP3A4; assay: western blot analysis, CYP3A4 protein expression in HepG2 cells; conditions: for effect on CYP3A4 protein expression: HepG2 cells, 48 h, western blot densitometry normalized to β-actin, vs DMSO control
[3] = system: CYP1A2; assay: western blot analysis, CYP1A2 protein expression in HepG2 cells; format: in vitro ADME, human; conditions: for effect on CYP1A2 protein expression: HepG2 cells, 48 h, western blot densitometry normalized to β-actin, vs DMSO control
Protocol: All compounds were diluted with concentrated DMSO.

[4] = system: CYP2D6; assay: western blot analysis, CYP2D6 protein expression in HepG2 cells; format: in vitro ADME, human; conditions: for effect on CYP2D6 protein expression: HepG2 cells, 48 h, western blot densitometry normalized to β-actin, vs DMSO control
[5] = system: CYP1A2; assay: multiplex RT-qPCR, CYP1A2 mRNA expression in HepG2 cells; conditions: for concentration with statistically significant CYP1A2 mRNA induction: P < 0.05 vs control; for concentration from which CYP1A2 mRNA induction was detected/observed: not necessarily statistically significant
[6] = system: CYP3A4; assay: multiplex RT-qPCR, CYP3A4 mRNA expression in HepG2 cells
[7] = system: CYP1A2; parameters: method as in Chow et al. [2010]; conditions: healthy subjects, ref Chow et al. [2010], cited from earlier work
[8] = system: CYP2C9; parameters: method as in Chow et al. [2010]; conditions: healthy subjects; ref Chow et al. [2010]; cited from earlier work
[9] = system: CYP3A4; parameters: method as in Chow et al. [2010]; conditions: healthy subjects; ref Chow et al. [2010]; cited from earlier work
[10] = system: CYP2D6; parameters: method as in Chow et al. [2010]; conditions: healthy subjects; ref Chow et al. [2010]; cited from earlier work
[11] = system: CYP2C9; parameters: method as in Pekthong et al. ([2008]); conditions: human microsomes; ref Pekthong et al. ([2008]); cited from earlier work
[12] = system: cytochrome P450 (CYP) 3A4; parameters: method as in Sunaga et al. [2012]; conditions: ref Sunaga et al. [2012]; cited from earlier work
[13] = system: PXR-responsive genes like CYP3A4; parameters: method as in Ruhl et al. [2004]; conditions: HepG2 cells; ref Ruhl et al. [2004]; cited from earlier work
[14] = system: CYP1A2; parameters: method as in Wen et al. [2002]; conditions: 48 h exposure, cultured human hepatocytes; ref Wen et al. [2002]; cited from earlier work
[15] = system: CYP2D6; assay: multiplex RT-qPCR, CYP2D6 mRNA expression in HepG2 cells; conditions: concomitant furafylline and omeprazole, control treated with omeprazole
[16] = system: CYP1A2; parameters: method as in Pekthong et al. ([2008]); conditions: human microsomes; ref Pekthong et al. ([2008]); cited from earlier work
[17] = system: CYP1A2; parameters: method as in Pekthong et al. [2009]; conditions: human hepatocytes; ref Pekthong et al. [2009]; cited from earlier work
[18] = system: 2C9; parameters: method as in Pekthong et al. [2009]; conditions: human hepatocytes; ref Pekthong et al. [2009]; cited from earlier work
[19] = system: 3A4; parameters: method as in Pekthong et al. [2009]; conditions: human hepatocytes; ref Pekthong et al. [2009]; cited from earlier work
[20] = system: CYP3A4; parameters: method as in Graber-Maier et al. [2010]; conditions: intestinal cells; ref Graber-Maier et al. [2010]; cited from earlier work
[21] = HepG2, concomitant furafylline and omeprazole, control treated with omeprazole

effect on CYP1A2 protein expression [3]: statistically insignificant
effect on CYP2D6 protein expression [4]: no effects
CYP1A2 mRNA up-regulation ([5]; 10 μmol/L, HepG2, 48 h, Ct 33 assumed for untreated control): 24 fold changes
concentration with statistically significant CYP1A2 mRNA induction ([5]; HepG2, 48 h): ≥ 10000 nM
concentration from which CYP1A2 mRNA induction was detected/observed ([5]; HepG2, 48 h): ≥ 1000 nM
CYP3A4 mRNA induction ([6]; 0.1 μmol/L, HepG2, 48 h): < 1.5 fold change
concentration with significant CYP3A4 mRNA induction ([6]; HepG2, 48 h, P < 0.05 vs control): 100 nM
Structure (SMILES): COc1ccc2[nH]c([S+]([O-])Cc3ncc(C)c(OC)c3C)nc2c1 (centres unmarked) [omeprazole]

effect on CYP1A2 protein expression [3]: insignificant
CYP2D6 protein induction, average ([4]; 0.1 μmol/L, HepG2, 48 h): more than twofold changes
concentration with statistically significant CYP1A2 mRNA induction ([5]; HepG2, 48 h): 50000 nM
concentration from which CYP1A2 mRNA induction was detected/observed ([5]; HepG2, 48 h): ≥ 100 nM
Structure (SMILES): Oc1ccc(/C=C/c2cc(O)cc(O)c2)cc1 [resveratrol]
decrease in the caffeine/paraxanthine metabolic ratio ([7]; 4 weeks of 1 g daily): 16%
phenotypic index of CYP1A2 [7]: induces
phenotypic index of CYP2C9 [8]: inhibit
effect on CYP2D6 protein expression [4]: statistically significant CYP2D6 protein induction
phenotypic index of CYP3A4 [9]: inhibit
phenotypic index of CYP2D6 [10]: inhibit

concentration with significantly higher CYP1A2 protein (mean relative intensity) ([3]; HepG2, 48 h, western blot): ≥ 5000 nM
effect on CYP1A2 protein expression [3]: significantly higher
CYP1A2 mRNA up-regulation ([5]; 5 μmol/L, HepG2, 48 h, estimated, Ct 33 assumed for untreated control): more than sixfold change
CYP1A2 mRNA up-regulation ([5]; 50 μmol/L, HepG2, 48 h, estimated, Ct 33 assumed for untreated control): 26 fold change
concentration from which CYP1A2 mRNA induction was detected/observed ([5]; HepG2, 48 h): ≥ 5000 nM
Structure (SMILES): O=c1cc(-c2ccccc2)oc2ccc3ccccc3c12 [β-naphthoflavone]
effect on CYP2D6 protein expression [4]: remained either unchanged or there were slight changes that were statistically insignificant
IC50 [16]: 85 nM
effect on CYP3A4 protein expression [2]: remained either unchanged or there were slight changes that were statistically insignificant

The remaining lines, values behind:

Structure (SMILES): CC(=O)N1CCN(c2ccc(OCC3COC(Cn4ccnc4)(c4ccc(Cl)cc4Cl)O3)cc2)CC1 (centres unmarked) [ketoconazole, reference compound]
effect on CYP3A4 protein expression [2]: differences were not proved to be significant

Structure (SMILES): CC(C)=CCC/C(C)=C/C=C/C(C)=C/C=C/C(C)=C/C=C/C=C(C)/C=C/C=C(C)/C=C/C=C(\C)CCC=C(C)C [lycopene]
inhibition of CYP3A4-mediated drug metabolism [12]: does not inhibit
effect on CYP2D6 protein expression [4]: did not appear to have any effects
activation potential on PXR-responsive genes like CYP3A4 [13]: no activation potential
effect on CYP3A4 protein expression [2]: did not appear to have any effects

Structure (SMILES): CC(C)=CCC/C(C)=C/COc1c2ccoc2cc2oc(=O)ccc12 [bergamottin]
effect on CYP1A2 protein expression [3]: only a slight induction
levels of CYP1A2 protein and mRNA [14]: increased levels
effect on CYP2D6 protein expression [4]: did not affect
CYP1A2 mRNA induction ([5]; 1 μmol/L, HepG2, 48 h, Ct 33 assumed for untreated control): ~11 fold increase
concentration from which CYP1A2 mRNA induction was detected/observed ([5]; HepG2, 48 h): ≥ 1000 nM
effect on CYP3A4 protein expression [2]: did not affect

Structure (SMILES): Cc1nc2c([nH]1)c(=O)n(C)c(=O)n2Cc1ccco1 [furafylline]
CYP1A2 protein expression in omeprazole-induced cells [3, 21]: reduction was statistically insignificant
CYP2D6 protein expression, furafylline with omeprazole [4, 21]: no significant changes
CYP2D6 mRNA expression, furafylline with omeprazole [15]: no significant changes
CYP1A2 mRNA expression in omeprazole-induced cells ([5]; HepG2, furafylline 2 h before omeprazole, concomitant treatment, compared with omeprazole-treated cells (control)): significantly reduced
CYP3A4 protein expression, furafylline with omeprazole [2, 21]: no significant changes
CYP3A4 mRNA expression, furafylline with omeprazole [6, 21]: no significant changes

Structure (SMILES): C=C1CC[C@@H]2[C@](C)(CO)[C@H](O)CC[C@@]2(C)[C@@H]1C/C=C1/C(=O)OC[C@H]1O [andrographolide]
IC50 [11]: > 100000 nM
effect on CYP2D6 protein expression [4]: up-regulated
mean up-regulation of the CYP2D6 protein ([4]; all concentrations tested, HepG2, 48 h): less than twofold changes
IC50 [16]: > 100000 nM
mRNA expression of CYP1A2 [17]: decrease
mRNA expression of CYP2C9 [18]: decrease
effect on CYP3A4 protein expression [2]: did not affect
mRNA expression of CYP3A4 [19]: decrease

Structure (SMILES): COc1cc(/C=C/C(=O)CC(=O)/C=C/c2ccc(O)c(OC)c2)ccc1O [curcumin]
effect on CYP2D6 protein expression [4]: does not affect significantly
mRNA expression of CYP3A4 [20]: did not affect
effect on CYP3A4 protein expression [2]: significant induction
